# Laboratory results as given in patent US20070189965A1, “Copper-complex isonitrile positron emission tomography (pet) imaging agent and method” (priority 2004, published 2007).
# Key:
# [1] = Stability of I-131 Hippuran vials on storage: percent remaining bound; type: physicochemical
# Experimental: As another example, I-131 Hippuran was prepared. The I-131 Hippuran was prepared as follows: 9 vials were prepared of I-131 Hippuran in solution with a radioactive concentration of MIBG of 1 mCi per vial. Each vial had 4 cc. The I-131 in seven of those vials was then stabilized and lyophilized according to the process described in this invention. One vial was frozen and maintained at a temperature of −10 degrees, and another vial was maintained room temperature. Room temperature was selected because Hippuran is thought to be stable at room temperature even in conjunction with a radioisotope. […]
# [2] = Stability of I-131 MIBG vials on storage: percent of iodine remaining bound; type: physicochemical
# Experimental: In order to establish the advantages of the novel process and resulting composition, a series of tests were run utilizing meta iodo benzyl guanidine (MIBG) in which the radionuclide I-131 was the iodine in the MlBG.
# The MIBG was prepared as follows: eight vials were prepared of MIBG in solution with a radioactive concentration of MIBG of 1 mCi per vial. The MIBG in six of those vials were then stabilized and lyophilized according to the process described in this invention. One vial was frozen and maintained at a temperature of −10 degrees, and another vial was simply refrigerated at approximately 5 degrees.
# Six vials were prepared according to the process in this invention in order to enable several to be reconstituted from the lyophilized state and their activity tallied.
# The radioactive concentration of MIBG per vial was 1 mCi per vial.
# One each of the vials was reconstituted after 24, 48, 72 and 168 hours respectively.
# [3] = Lyophilized and stabilized per invention, stored at room temp., 0 hours, 1 mCi per vial
structure (smiles),measurement,setting,value
O=C(O)CNC(=O)c1ccccc1[131I] [I-131 Hippuran],percent of Hippuran remaining bound to the 1-123,"[1]; Frozen −10°, 0 hours",98%
same,percent of Hippuran remaining bound to the 1-123,"[1]; Frozen −10°, 24 hrs",97.8%
same,percent of Hippuran remaining bound to the 1-123,"[1]; Frozen −10°, 48 hrs",97%
same,percent of Hippuran remaining bound to the 1-123,"[1]; Frozen −10°, 72 hrs",94%
same,percent of Hippuran remaining bound to the 1-123,"[1]; Frozen −10°, 96 hrs",92.5%
same,percent of Hippuran remaining bound to the 1-123,"[1]; Frozen −10°, 120 hrs",91
same,percent of Hippuran remaining bound to the 1-123,[1]; [3],98%
same,percent of Hippuran remaining bound to the 1-123,"[1]; Lyophilized and stabilized per invention, stored at room temp., 24 hrs",98.4%
same,percent of Hippuran remaining bound to the 1-123,"[1]; Lyophilized and stabilized per invention, stored at room temp., 48 hrs",98.6%
same,percent of Hippuran remaining bound to the 1-123,"[1]; Lyophilized and stabilized per invention, stored at room temp., 72 hrs",98%
same,percent of Hippuran remaining bound to the 1-123,"[1]; Lyophilized and stabilized per invention, stored at room temp., 96 hrs",98.4%
same,percent of Hippuran remaining bound to the 1-123,"[1]; Lyophilized and stabilized per invention, stored at room temp., 120 hrs",98.5%
same,percent of Hippuran remaining bound to the 1-123,"[1]; Room Temp. (solution), 0 hours",98%
same,percent of Hippuran remaining bound to the 1-123,"[1]; Room Temp. (solution), 24 hrs",96%
same,percent of Hippuran remaining bound to the 1-123,"[1]; Room Temp. (solution), 48 hrs",95%
same,percent of Hippuran remaining bound to the 1-123,"[1]; Room Temp. (solution), 72 hrs",94.5%
same,percent of Hippuran remaining bound to the 1-123,"[1]; Room Temp. (solution), 96 hrs",92%
same,percent of Hippuran remaining bound to the 1-123,"[1]; Room Temp. (solution), 120 hrs",90%
"N=C(N)NCc1cccc([131I])c1 [MIBG, meta iodo benzyl guanidine]",percent of iodine remaining bound to the MIBG,"[2]; Frozen −10°, 0 hours",96.3%
same,percent of iodine remaining bound to the MIBG,"[2]; Frozen −10°, 24 hours",94%
same,percent of iodine remaining bound to the MIBG,"[2]; Frozen −10°, 48 hours",91%
same,percent of iodine remaining bound to the MIBG,"[2]; Frozen −10°, 72 hours",84%
same,percent of iodine remaining bound to the MIBG,"[2]; Frozen −10°, 168 hours (1 wk.)",72%
same,percent of iodine remaining bound to the MIBG,[2]; [3],96.3%
same,percent of iodine remaining bound to the MIBG,"[2]; Lyophilized and stabilized per invention, stored at room temp., 24 hours",97%
same,percent of iodine remaining bound to the MIBG,"[2]; Lyophilized and stabilized per invention, stored at room temp., 48 hours",96.6%
same,percent of iodine remaining bound to the MIBG,"[2]; Lyophilized and stabilized per invention, stored at room temp., 72 hours",96.2%
same,percent of iodine remaining bound to the MIBG,"[2]; Lyophilized and stabilized per invention, stored at room temp., 168 hours (1 wk.)",95.9%
same,percent of iodine remaining bound to the MIBG,"[2]; Refrigerated ˜+5°, 0 hours",96.3%
same,percent of iodine remaining bound to the MIBG,"[2]; Refrigerated ˜+5°, 24 hours",92%
same,percent of iodine remaining bound to the MIBG,"[2]; Refrigerated ˜+5°, 48 hours",85%
same,percent of iodine remaining bound to the MIBG,"[2]; Refrigerated ˜+5°, 72 hours",77%
same,percent of iodine remaining bound to the MIBG,"[2]; Refrigerated ˜+5°, 168 hours (1 wk.)",55%
